# Results: ChEMBL document CHEMBL1154674, “Synthesis and evaluation of three 18F-labeled aminophenylbenzothiazoles as amyloid imaging agents” (J Med Chem, 2009)
# Key:
# Format in all cases: ADME, organism-based, Macaca mulatta
# [1] = Drug level in normal rhesus monkey thalamus assessed as standard uptake value at 96.3 MBq, iv after 3.5 mins by microPET; conditions: in vivo
# [2] = Drug level in normal rhesus monkey parietal cortex assessed as standard uptake value at 81.2 MBq, iv after 145 mins by microPET; conditions: in vivo
# [3] = Drug level in normal rhesus monkey white matter assessed as standard uptake value at 152.9 MBq, iv after 14 mins by microPET; conditions: in vivo
# [4] = Drug level in normal rhesus monkey pons assessed as standard uptake value at 152.9 MBq, iv after 0.5 mins by microPET; conditions: in vivo
# [5] = Drug level in normal rhesus monkey thalamus assessed as standard uptake value at 109.4 MBq, iv after 37.5 mins by microPET; conditions: in vivo, 0.625 h
# [6] = Drug level in normal rhesus monkey frontal cortex assessed as standard uptake value at 109.4 MBq, iv after 15.5 mins by microPET; conditions: in vivo
# [7] = Drug level in normal rhesus monkey thalamus assessed as standard uptake value at 109.4 MBq, iv after 0.125 mins by microPET; conditions: in vivo, 7 s
# [8] = Drug level in normal rhesus monkey thalamus assessed as standard uptake value at 109.4 MBq, iv after 129 mins by microPET; conditions: in vivo, 2.15 h
smiles,measurement,setting,value
CN(C)c1ccc2nc(-c3ccc([18F])cc3)sc2c1,SUV,[1],2
CNc1ccc2nc(-c3ccc([18F])cc3)sc2c1,SUV,[2],2.565
[11CH3]Nc1ccc(-c2nc3ccc(O)cc3s2)cc1 [PITTSBURGH COMPOUND B],SUV,[3],1.428
same,SUV,[4],0.041
Nc1ccc2nc(-c3ccc([18F])cc3)sc2c1,SUV,[5],5.66
same,SUV,[6],5.08
same,SUV,[7],0
same,SUV,[8],4.43
